According to paper PMC4023695 (ACS medicinal chemistry letters, 2014):
Marks after values point to notes of the source that are not given here.

Legend:
C57Bl6 mice = assay: Mouse tail-flick assay; assay type: in vivo; conditions: intravenous, nonlinear regression of log dose–response curve
Caco-2 cell monolayers = assay: Caco-2 cell monolayer translocation; assay type: in vitro ADME
[1] = Metabolic plasma stability assay; assay type: in vitro ADME; conditions: up to 20 h
MOR [2] = biological target: MOR (Rattus norvegicus, UniProt P33535); assay type: binding
MOR (Rattus norvegicus, UniProt P33535), sequence (P33535 whole entry): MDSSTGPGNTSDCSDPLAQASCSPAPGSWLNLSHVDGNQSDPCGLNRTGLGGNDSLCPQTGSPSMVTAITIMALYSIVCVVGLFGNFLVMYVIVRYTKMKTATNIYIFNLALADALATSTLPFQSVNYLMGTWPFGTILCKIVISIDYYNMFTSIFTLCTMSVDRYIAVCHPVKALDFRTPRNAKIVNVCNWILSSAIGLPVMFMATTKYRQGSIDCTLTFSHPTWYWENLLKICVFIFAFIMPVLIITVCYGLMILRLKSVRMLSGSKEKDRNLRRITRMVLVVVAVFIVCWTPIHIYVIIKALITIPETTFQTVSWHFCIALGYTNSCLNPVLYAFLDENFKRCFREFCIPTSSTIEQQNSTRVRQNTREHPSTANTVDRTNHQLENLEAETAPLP

[3] = cited from earlier work
MOR [4] = conditions: read-out: GPI IC50; DALDA literature characterisation, no reference given; cited from earlier work
[5] = cis-concentration 13 nM, absence of unlabelled compound, means ± SE, n = 3

## Cc1cc(O)cc(C)c1C[C@H](N)C(=O)N[C@H](CCCNC(=N)N)C(=O)N[C@@H](Cc1ccccc1)C(=O)N[C@@H](Cc1cn([C@@H]2O[C@H](CO)[C@H](O)[C@H](O)[C@H]2O)nn1)C(N)=O [compound 4]
C57Bl6 mice
  ED50 tail-flick test: 0.27* mg/kg
Caco-2 cell monolayers; 21 day old Caco-2 monolayers, 13 nM
  A–B and B–A permeabilities compared to mannitol: slightly higher than the permeability of the passive flux marker mannitol
Caco-2 cell monolayers; [5]
  Flux A–B (lumen–blood): 2.59 ± 0.15 nmol·cm^−2·min^−1 × 10^−7
  Flux B–A (blood–lumen): 2.96 ± 0.13 nmol·cm^−2·min^−1 × 10^−7
[1]
  degradation in human plasma: no degradation products could be observed

## N=C(N)NCCC[C@@H](NC(=O)[C@@H](N)Cc1ccc(OCc2cn([C@@H]3O[C@H](CO)[C@H](O)[C@H](O)[C@H]3O)nn2)cc1)C(=O)N[C@@H](Cc1ccccc1)C(=O)N[C@@H](CCCCN)C(N)=O [compound 3]
MOR [2]; compound 3 vs DALDA
  loss in binding (MOR) relative to DALDA: 22 fold
MOR [2]; μ/δ receptor binding selectivity ratio
  Ki ratio μ/δ: >130

## Cc1cc(O)cc(C)c1C[C@H](N)C(=O)N[C@H](CCCNC(=N)N)C(=O)N[C@@H](Cc1ccccc1)C(=O)N[C@@H](Cc1cn([C@@H]2O[C@H](CO)[C@@H](O)[C@H](O)[C@H]2O)nn1)C(N)=O [compound 5]
[1]
  degradation in human plasma: no degradation products could be observed

## OC[C@@H](O)[C@@H](O)[C@H](O)[C@H](O)CO [mannitol]
[3]
  oral bioavailability: ~ 20%

## Tyr-D-Arg-Phe-Lys-NH2 [DALDA]
MOR [4]
  IC50: 254 nM
